# Results reported in ChEMBL document CHEMBL1201862, “PubChem BioAssay data set” (2004).
# Calls of active or inactive are those of the source.
# Key:
# [1] = biological target: T1, Scavenger receptor class B member 1 (Mus musculus, UniProt Q61009); test: mouse SR-BI DiI-HDL uptake blockers – ldlA[mSR-BI] cells, fluorescence, cherry pick, dose response (AID 493194); format: functional, cell-based;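 also: cellular uptake of fluorescent DiI-labeled HDL measured as cell fluorescence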
# T1 sequence (Q61009 whole entry): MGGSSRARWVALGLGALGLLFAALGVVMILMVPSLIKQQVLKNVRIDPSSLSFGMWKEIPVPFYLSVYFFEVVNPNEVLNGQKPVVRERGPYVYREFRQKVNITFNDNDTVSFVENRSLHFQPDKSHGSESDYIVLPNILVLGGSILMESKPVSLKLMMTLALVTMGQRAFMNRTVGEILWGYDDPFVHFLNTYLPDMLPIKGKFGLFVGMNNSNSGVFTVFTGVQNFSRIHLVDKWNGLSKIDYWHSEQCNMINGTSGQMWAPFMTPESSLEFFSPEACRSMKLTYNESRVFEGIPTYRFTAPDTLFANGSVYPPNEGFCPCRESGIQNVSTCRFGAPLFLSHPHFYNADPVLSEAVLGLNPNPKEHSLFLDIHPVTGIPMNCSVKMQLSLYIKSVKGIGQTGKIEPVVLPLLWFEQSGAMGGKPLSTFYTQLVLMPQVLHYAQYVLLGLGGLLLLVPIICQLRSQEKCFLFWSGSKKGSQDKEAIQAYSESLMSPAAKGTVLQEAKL
# Prothrombin = Prothrombin (Homo sapiens, UniProt P00734); test: Thrombin 1536 HTS Dose Response Confirmation. [Related pubchem assays: 1046 (Thrombin 1536 HTS; hits were confirmed in this assay)]; format: functional
# X-box-binding protein 1 = biological target: T2, X-box-binding protein 1 (Homo sapiens, UniProt P17861); format: functional, Cricetulus griseus;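 also: confirmatory dose-response counter-screen serving a CHOP assay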
# T2 sequence (P17861 whole entry): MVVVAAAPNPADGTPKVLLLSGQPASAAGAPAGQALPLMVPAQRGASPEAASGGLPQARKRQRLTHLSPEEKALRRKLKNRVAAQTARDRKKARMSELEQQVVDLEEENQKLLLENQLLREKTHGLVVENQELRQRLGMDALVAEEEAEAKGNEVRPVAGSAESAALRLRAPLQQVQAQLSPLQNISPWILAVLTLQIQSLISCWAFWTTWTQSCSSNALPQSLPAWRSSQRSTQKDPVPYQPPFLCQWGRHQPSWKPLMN
# [2] = biological target: T3, Heat shock factor protein 1 (Mus musculus, UniProt P38532); test: decrease of HSF1-responsive luciferase luminescence – cell-based, NIH3T3, dose retest, confirmation (AID 2382); format: functional;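 also: NIH3T3 fibroblasts with HSF1-driven luciferase reporter stressed by proteasome inhibitor MG132; luminescence from HSF1-driven luciferase expression after 8 hours of MG132 stress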
# T3 sequence (P38532 whole entry): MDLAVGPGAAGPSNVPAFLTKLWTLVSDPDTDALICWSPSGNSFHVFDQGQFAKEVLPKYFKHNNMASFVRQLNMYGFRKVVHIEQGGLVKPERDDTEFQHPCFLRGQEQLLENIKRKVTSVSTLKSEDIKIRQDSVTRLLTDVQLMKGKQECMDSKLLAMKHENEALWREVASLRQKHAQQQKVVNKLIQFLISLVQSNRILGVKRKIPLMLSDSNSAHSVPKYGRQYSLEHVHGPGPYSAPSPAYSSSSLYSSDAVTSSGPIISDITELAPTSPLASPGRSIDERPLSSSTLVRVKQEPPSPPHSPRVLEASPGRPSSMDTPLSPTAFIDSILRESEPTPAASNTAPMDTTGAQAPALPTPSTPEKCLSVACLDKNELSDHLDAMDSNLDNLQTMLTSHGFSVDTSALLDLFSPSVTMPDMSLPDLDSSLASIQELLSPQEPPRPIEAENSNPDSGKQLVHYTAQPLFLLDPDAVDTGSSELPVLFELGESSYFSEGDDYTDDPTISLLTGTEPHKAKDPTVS
# [3] = Luminescence Cell-Based Dose Retest to Confirm Inhibitors of Cancer Stem Cells. [Related pubchem assays (depositor defined):AID2717, AID2721]; format: functional; conditions: Homo sapiens
# [4] = A Cell Based Secondary Assay To Explore Cytotoxicity of Compounds that Sensitize Mycobacterium Tuberculosis to Beta-Lactam Antibiotics.; format: functional
# [5] = biological target: T4, Corticotropin-releasing factor receptor 2/Corticotropin-releasing factor-binding protein (Homo sapiens, UniProt P24387+Q13324); test: activators of CRF receptor 2 with binding protein – uHTS hits, confirmation (AID 602473); format: functional; conditions: read-out: EC50_Mean
# T4 sequence (Q13324 whole entry): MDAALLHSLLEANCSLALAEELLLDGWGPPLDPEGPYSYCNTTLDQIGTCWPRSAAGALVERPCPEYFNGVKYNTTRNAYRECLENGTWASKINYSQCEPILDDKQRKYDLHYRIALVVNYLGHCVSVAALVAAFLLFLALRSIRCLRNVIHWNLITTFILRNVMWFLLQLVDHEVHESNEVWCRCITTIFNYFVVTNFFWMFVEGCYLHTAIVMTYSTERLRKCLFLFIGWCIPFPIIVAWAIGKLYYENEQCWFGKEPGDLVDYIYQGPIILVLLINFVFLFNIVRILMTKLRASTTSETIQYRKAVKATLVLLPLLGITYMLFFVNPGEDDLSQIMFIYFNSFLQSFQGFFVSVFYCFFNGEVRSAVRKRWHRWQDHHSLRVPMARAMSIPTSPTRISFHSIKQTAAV
# T4 sequence (P24387 whole entry): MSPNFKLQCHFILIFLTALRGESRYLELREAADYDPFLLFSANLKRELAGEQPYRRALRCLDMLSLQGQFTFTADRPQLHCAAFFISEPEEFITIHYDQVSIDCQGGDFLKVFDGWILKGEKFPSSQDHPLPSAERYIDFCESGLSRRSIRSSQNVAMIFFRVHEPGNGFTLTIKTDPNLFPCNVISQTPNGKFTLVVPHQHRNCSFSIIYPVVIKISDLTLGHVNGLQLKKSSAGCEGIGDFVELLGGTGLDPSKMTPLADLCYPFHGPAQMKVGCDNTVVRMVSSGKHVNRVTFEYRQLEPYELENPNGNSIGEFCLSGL
# [6] = Trypanosoma cruzi growth suppression in host cells – NIH3T3 host cells, beta-gal luminescence, confirmation (AID 2044); format: functional, cell-based;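 also: intracellular parasites grown in NIH/3T3 mouse fibroblasts as host cells; luminescent beta-galactosidase reporter signal from transgenic T. cruzi replicating inside host cells; inhibitors lower the luminescence signal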
# [7] = NIH3T3 cell viability loss – ATP luminescence, mouse fibroblasts, counter-screen, dose response (AID 2010); format: functional, cell-based;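 also: cells exposed to compound for about 90 hours before reading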
# [8] = biological target: T5, Polyadenylate-binding protein 1 (Homo sapiens, UniProt P11940); test: MLLE binding blockers, Cy5 peptide tracer – biochemical, fluorescence polarization, Cy5-PAM2 peptide, secondary, miRNA deadenylation inhibitor project, dose response (AID 602260); format: functional; conditions: read-out: IC50_Mean
# T5 sequence (P11940 whole entry, the tested form may be a part): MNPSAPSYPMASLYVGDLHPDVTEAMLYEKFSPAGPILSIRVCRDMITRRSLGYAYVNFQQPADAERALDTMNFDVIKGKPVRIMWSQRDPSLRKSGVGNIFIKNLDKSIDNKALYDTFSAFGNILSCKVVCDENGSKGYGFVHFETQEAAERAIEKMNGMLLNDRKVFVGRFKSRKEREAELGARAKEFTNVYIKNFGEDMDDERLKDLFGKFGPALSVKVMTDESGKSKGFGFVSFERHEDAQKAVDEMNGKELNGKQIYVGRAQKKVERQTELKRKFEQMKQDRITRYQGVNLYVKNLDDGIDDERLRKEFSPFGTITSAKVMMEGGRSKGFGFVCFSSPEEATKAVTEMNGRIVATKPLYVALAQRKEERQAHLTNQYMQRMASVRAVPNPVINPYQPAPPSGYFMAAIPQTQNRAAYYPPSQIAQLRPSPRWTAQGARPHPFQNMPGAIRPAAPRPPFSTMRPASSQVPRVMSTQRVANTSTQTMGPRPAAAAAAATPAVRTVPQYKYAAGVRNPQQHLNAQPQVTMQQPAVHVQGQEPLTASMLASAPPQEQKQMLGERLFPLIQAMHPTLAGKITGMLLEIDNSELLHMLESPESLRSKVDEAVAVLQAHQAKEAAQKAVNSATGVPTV
# [9] = biological target: T5, Polyadenylate-binding protein 1; test: MLLE domain peptide-binding blockers, IC50 – biochemical, fluorescence polarization, FITC-PAM2 peptide, dose response (AID 602259); format: functional; conditions: read-out: IC50_Mean
# [10] = biological target: E3 ubiquitin-protein ligase Mdm2 (Homo sapiens, UniProt Q00987); test: MDM2-luc reporter signal enhancers, multi-concentration potency testing, MDM2 ubiquitin-protein ligase inhibitor program, whole-cell format, luminescence detection, 384-well microplate (AID 1394); format: functional;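 also: MDM2 E3 inhibitors raise luminescence so EC50 is for signal enhancement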
# E3 ubiquitin-protein ligase Mdm2, sequence (Q00987 whole entry): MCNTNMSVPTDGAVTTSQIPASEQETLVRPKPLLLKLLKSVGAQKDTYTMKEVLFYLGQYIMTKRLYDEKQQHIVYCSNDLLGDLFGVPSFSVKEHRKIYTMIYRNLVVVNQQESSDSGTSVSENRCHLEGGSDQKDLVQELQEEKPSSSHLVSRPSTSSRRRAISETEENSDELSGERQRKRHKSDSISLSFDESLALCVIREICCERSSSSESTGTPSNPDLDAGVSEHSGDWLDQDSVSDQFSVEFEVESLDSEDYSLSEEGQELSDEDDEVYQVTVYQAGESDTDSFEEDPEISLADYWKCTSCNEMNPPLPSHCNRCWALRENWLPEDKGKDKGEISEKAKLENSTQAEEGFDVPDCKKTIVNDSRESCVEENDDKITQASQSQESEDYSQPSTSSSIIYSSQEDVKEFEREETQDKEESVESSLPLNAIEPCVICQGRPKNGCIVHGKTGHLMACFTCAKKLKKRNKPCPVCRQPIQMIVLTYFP
# [11] = biological target: T6, Aryl hydrocarbon receptor (Homo sapiens, UniProt P35869); test: Luminescence-based cell-based high throughput dose response assay for activators of the Aryl Hydrocarbon Receptor (AHR). [Related pubchem assays: 2796 (Primary screen (AHR activators in singlicate)), 2845 (Confirmation screen (AHR activators in triplicate)), 434939 (Counterscreen (PXR activators in triplicate)), 2804 (Summary (AHR activators))]; format: ADME
# T6 sequence (P35869 whole entry): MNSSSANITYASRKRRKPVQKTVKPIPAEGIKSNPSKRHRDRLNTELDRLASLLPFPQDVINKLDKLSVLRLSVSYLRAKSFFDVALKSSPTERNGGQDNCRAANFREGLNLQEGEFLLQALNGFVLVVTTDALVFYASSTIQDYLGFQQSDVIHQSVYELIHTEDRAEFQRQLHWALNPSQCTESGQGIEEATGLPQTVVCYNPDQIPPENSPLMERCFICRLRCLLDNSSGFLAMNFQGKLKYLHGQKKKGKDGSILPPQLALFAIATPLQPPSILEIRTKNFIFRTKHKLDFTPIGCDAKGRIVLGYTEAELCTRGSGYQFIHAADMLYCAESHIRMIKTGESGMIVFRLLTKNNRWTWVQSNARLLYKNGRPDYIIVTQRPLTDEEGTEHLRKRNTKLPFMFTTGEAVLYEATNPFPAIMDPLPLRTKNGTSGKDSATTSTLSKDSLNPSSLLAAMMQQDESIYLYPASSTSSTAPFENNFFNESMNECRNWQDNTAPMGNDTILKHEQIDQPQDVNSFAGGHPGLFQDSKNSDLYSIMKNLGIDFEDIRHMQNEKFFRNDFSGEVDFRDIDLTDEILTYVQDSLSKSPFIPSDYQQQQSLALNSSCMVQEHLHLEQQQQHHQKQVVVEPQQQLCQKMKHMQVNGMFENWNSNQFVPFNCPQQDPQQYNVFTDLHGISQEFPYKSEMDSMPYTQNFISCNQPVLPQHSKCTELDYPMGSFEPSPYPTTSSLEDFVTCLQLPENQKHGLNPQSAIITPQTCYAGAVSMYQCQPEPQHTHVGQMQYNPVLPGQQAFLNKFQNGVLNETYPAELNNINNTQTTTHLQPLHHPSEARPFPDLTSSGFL
# Bcl-2-like protein 10 = biological target: T7, Bcl-2-like protein 10 (Homo sapiens, UniProt Q9HD36); test: Bcl-B/TR3 peptide binding disruption – biochemical, fluorescence polarization, FITC-TR3 peptide, selectivity assay for Bfl-1 inhibitor project, primary screen (AID 748);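 also: fluorescence polarization from a fluorescein-labelled TR3 peptide binding purified Bcl-B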
# T7 sequence (Q9HD36 whole entry): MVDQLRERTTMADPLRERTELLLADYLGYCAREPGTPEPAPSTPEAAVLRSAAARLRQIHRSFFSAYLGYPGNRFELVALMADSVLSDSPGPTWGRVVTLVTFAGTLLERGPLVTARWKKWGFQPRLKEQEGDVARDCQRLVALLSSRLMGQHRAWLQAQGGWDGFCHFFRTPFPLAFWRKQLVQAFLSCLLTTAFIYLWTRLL
# Cytochrome P450 1A2 = biological target: T8, Cytochrome P450 1A2 (Homo sapiens, UniProt P05177);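 also: PubChem cytochrome P450 panel assay, CYP1A2 panel member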
# T8 sequence (P05177 whole entry): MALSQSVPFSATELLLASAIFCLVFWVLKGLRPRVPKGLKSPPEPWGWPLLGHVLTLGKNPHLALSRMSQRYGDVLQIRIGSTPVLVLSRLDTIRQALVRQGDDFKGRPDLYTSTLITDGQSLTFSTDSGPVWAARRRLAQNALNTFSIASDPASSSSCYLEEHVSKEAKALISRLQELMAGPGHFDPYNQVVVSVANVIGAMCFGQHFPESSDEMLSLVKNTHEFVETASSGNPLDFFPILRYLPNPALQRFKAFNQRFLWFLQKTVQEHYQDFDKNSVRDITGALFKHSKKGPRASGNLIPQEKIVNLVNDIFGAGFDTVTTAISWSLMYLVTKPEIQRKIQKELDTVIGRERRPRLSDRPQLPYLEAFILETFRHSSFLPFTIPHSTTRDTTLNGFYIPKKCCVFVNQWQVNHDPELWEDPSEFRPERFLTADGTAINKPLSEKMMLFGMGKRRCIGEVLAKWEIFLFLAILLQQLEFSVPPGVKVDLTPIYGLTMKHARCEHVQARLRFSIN
# Cytochrome P450 2C9 = Cytochrome P450 2C9 (Homo sapiens, UniProt P11712)
# Cytochrome P450 2C9, sequence (P11712 whole entry): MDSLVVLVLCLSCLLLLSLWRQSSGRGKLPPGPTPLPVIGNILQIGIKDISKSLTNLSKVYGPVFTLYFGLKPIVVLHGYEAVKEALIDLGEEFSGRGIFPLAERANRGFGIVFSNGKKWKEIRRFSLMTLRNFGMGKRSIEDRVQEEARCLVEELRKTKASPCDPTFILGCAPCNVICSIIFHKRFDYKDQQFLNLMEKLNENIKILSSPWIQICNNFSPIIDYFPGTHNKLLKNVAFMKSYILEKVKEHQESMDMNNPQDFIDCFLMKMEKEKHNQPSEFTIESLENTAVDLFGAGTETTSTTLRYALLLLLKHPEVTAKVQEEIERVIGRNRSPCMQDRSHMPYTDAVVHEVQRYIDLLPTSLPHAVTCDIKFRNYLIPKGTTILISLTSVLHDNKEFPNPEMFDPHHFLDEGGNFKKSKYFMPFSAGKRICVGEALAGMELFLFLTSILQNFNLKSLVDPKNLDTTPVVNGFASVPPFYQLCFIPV
# INS1 = test: INS-1E survival protection against cytokine death – cell-based, luminescence, retest, dose response (AID 449756); format: functional; conditions: Rattus norvegicus;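 also: cell death triggered by IL-1 beta plus TNF-alpha plus IFN-gamma mixture; protective hits raise ATP signal compared with cytokine alone wells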
compound,measurement,setting,value
Nc1ccc(Nc2nc(-c3cccs3)cs2)cc1,AC50,[1],8.4 µM (active)
COc1ccc2sc(-c3ccc(N(C)C)cc3)c(C#CC(C)(C)O)c2c1,AC50,[1],2.73 µM (active)
CC(=O)c1c(OC(=O)c2ccco2)c2ccccc2n1C,IC50,Prothrombin,3.99 µM (active)
COc1cc(/C=C/c2nc(N)nc(-c3ccccc3O)n2)cc(OC)c1OC,Absolute IC50 (XBP1),X-box-binding protein 1,10 µM
same,EC50,[2],36.1 µM (active)
C=CCNCCCOc1ccc(Cl)cc1C(C)(C)C,AC50,[3],16.1 µM (active)
same,CC50,[4],28.8 µM (active)
COc1cc(/C=C(/C#N)c2nc(O)c3ccccc3n2)ccc1O,EC50,[5],> 53 µM (inactive)
same,Absolute IC50 (XBP1),X-box-binding protein 1,10 µM
Fc1ccccc1N1CCN(C2CCCN(Cc3cccc(C(F)(F)F)c3)C2)CC1 (centres undefined),EC50,[6],< 0.1 µM (active)
same,EC50,[7],> 60 µM (not active)
same,EC50,cells,0.656 µM (active)
Oc1nc2cc3c(cc2cc1CN(Cc1nnnn1CC1CCCO1)C1CCCC1)OCO3 (centres undefined),IC50,[8],> 66 µM (inactive)
same,IC50,[9],> 66 µM (inactive)
same,EC50,[10],47.2 µM (not active)
CCOc1ccc(C2=C/C(=C/c3cccnc3)C(=O)O2)cc1,Absolute IC50 (XBP1),X-box-binding protein 1,10 µM
Brc1ccc2ncnc(Nc3ccc(N4CCOCC4)cc3)c2c1,EC50,[6],0.92 µM (active)
same,EC50,[7],> 60 µM (not active)
same,EC50,[11],1.14 µM (active)
same,IC50,Bcl-2-like protein 10,> 50 µM (inactive)
CC(=O)Nc1ccc(Nc2ncc([N+](=O)[O-])c(Nc3ccc(NC(C)=O)cc3)n2)cc1,AC50,Cytochrome P450 1A2,22.4 µM (inconclusive)
same,CC50,[4],> 40 µM (active)
same,AC50,Cytochrome P450 2C9,0.355 µM (inconclusive)
CN1CCC(OC(=O)c2ccc(Br)cc2)CC1,EC50,[6],< 0.1 µM (active)
same,EC50,[7],> 60 µM (not active)
same,EC50,cells,0.029 µM (active)
CCCNc1nc(Cl)nc(Nc2ccc(Cl)cc2)n1,EC50,[11],3.38 µM (active)
O=C(CN(C(=O)Cn1nnc(-c2ccc(F)cc2)n1)C1CCCC1)NC1CCCC1,AC50,[1],0.184 µM (active)
Cc1nnc(SCc2nnc(-c3ccccc3Br)o2)n1-c1ccccc1,IC50,Prothrombin,> 50 µM (not active)
COc1cc(/C=N/NC(=O)c2cccnc2)cc2c1OCO2,EC50,[11],6.16 µM (active)
COc1ccc2c(c1)N(C)/C(=C/c1cccc[n+]1C)S2,EC50,[6],< 0.1 µM (active)
same,AC50,INS1,1.13 µM (active)
same,EC50,[7],> 60 µM (not active)
same,EC50,cells,0.029 µM (active)
